# Bridge positions count the residues as written; N and C are the ends. Square brackets hold non-standard residues; d marks the D form. Peptide text beside a SMILES is read from it. * marks the point of attachment. Ileψ(thiazoline)Cys = CC[C@H](C)[C@H](N)C1=N[C@H](C(=O)*)CS1; dOrn = NCCC[C@@H](N)C(=O)O
# System: SARS-CoV-2
# Experiment: microbe, parasite or virus in culture
# Conditions: Severe acute respiratory syndrome coronavirus 2, Vero C1008, 48 h
smiles,measurement,setting,value
CN1C(=O)COc2c(C(=O)NC3CN4CCC3CC4)cc(Cl)cc21 (configuration not stated) [AZASETRON],IC50,,> 20 µM
same,IC50,read-out: pIC50 (converted),> 20 µM
CN1CCC(=C2c3ccccc3CCc3cccnc32)CC1 [AZATADINE],IC50,,> 20 µM
same,IC50,read-out: pIC50 (converted),> 20 µM
Cn1cnc([N+](=O)[O-])c1Sc1ncnc2[nH]cnc12 [AZATHIOPRINE],IC50,,> 20 µM
same,IC50,read-out: pIC50 (converted),> 20 µM
c1cnc2c(c1)C[C@@]1(CN3CCC1CC3)O2 [AZD0328],IC50,,> 20 µM
same,IC50,read-out: pIC50 (converted),> 20 µM
CC(=O)Nc1cccc2c1c(Sc1ccc(Cl)cc1)c(C)n2CC(=O)O [AZD1981],IC50,,> 20 µM
same,IC50,read-out: pIC50 (converted),> 20 µM
Cc1[nH]nc(C(F)(F)F)c1Cc1sc2c(c1C(=O)N1C[C@](C)(O)CO1)c(=O)n(C)c(=O)n2C(C)C [AZD3965],IC50,,> 20 µM
same,IC50,read-out: pIC50 (converted),> 20 µM
O=C(NCC12CC3CC(CC(C3)C1)C2)c1cc(CCCNCCCO)ccc1Cl [AZD9056],IC50,,> 20 µM
same,IC50,read-out: pIC50 (converted),> 20 µM
Cc1cc(Nc2nc(N[C@@H](C)c3ncc(F)cn3)ncc2Cl)[nH]n1 [AZD-1480],IC50,,> 20 µM
same,IC50,read-out: pIC50 (converted),> 20 µM
COc1ccc(-c2ccc3c(N4CCOC[C@@H]4C)nc(N4CCOC[C@@H]4C)nc3n2)cc1CO [AZD-8055],IC50,,> 20 µM
same,IC50,read-out: pIC50 (converted),> 20 µM
O=C(O)CCCCCCCC(=O)O [AZELAIC ACID],IC50,,> 20 µM
same,IC50,read-out: pIC50 (converted),> 20 µM
CCN1CCc2nc(N)oc2CC1 [AZEPEXOLE],IC50,,> 20 µM
same,IC50,read-out: pIC50 (converted),> 20 µM
CCOc1nc2cccc(C(=O)O)c2n1Cc1ccc(-c2ccccc2-c2noc(=O)[nH]2)cc1 [AZILSARTAN],IC50,,> 20 µM
same,IC50,read-out: pIC50 (converted),> 20 µM
CN1CCN(CCCCN2C(=O)CN(/N=C/c3ccc(-c4ccc(Cl)cc4)o3)C2=O)CC1 [AZIMILIDE],IC50,,> 20 µM
same,IC50,read-out: pIC50 (converted),> 20 µM
CN1C(=N)N(c2ccccc2)CC1=O [AZOLIMINE],IC50,,> 20 µM
same,IC50,read-out: pIC50 (converted),> 20 µM
NS(=O)(=O)c1cc(-c2nnn[nH]2)c(NCc2cccs2)cc1Cl [AZOSEMIDE],IC50,,> 20 µM
same,IC50,read-out: pIC50 (converted),> 20 µM
C[C@H]1[C@H](NC(=O)/C(=N\OC(C)(C)C(=O)O)c2csc(N)n2)C(=O)N1S(=O)(=O)O [AZTREONAM],IC50,,> 20 µM
same,IC50,read-out: pIC50 (converted),> 20 µM
O=C1CN(/N=C/c2ncc(-c3ccc(Br)cc3)o2)C(=O)N1 [AZUMOLENE],IC50,,> 20 µM
same,IC50,read-out: pIC50 (converted),> 20 µM
CCOC(=O)OC(C)OC(=O)[C@@H]1N2C(=O)[C@@H](NC(=O)[C@H](N)c3ccccc3)[C@H]2SC1(C)C (some centres not stated) [BACAMPICILLIN],IC50,,> 20 µM
same,IC50,read-out: pIC50 (converted),> 20 µM
CC[C@H](C)[C@H](N)C1=N[C@H](C(=O)N[C@@H](CC(C)C)C(=O)N[C@H](CCC(=O)O)C(=O)N[C@H](C(=O)N[C@H]2CCCCNC(=O)[C@H](CC(N)=O)NC(=O)[C@@H](CC(=O)O)NC(=O)[C@H](Cc3cnc[nH]3)NC(=O)[C@@H](Cc3ccccc3)NC(=O)[C@H]([C@@H](C)CC)NC(=O)[C@@H](CCCN)NC2=O)[C@@H](C)CC)CS1 [BACITRACIN] ({Ileψ(thiazoline)Cys}-L[dE]IK[dOrn]I[dF]H[dD]N; lactam 4-C),IC50,,> 20 µM
same,IC50,read-out: pIC50 (converted),> 20 µM
NCC(CC(=O)O)c1ccc(Cl)cc1 (configuration not stated) [BACLOFEN],IC50,,> 20 µM
same,IC50,read-out: pIC50 (converted),> 20 µM
O=C(O)[C@H]1O[C@@H](Oc2cc3oc(-c4ccccc4)cc(=O)c3c(O)c2O)[C@H](O)[C@@H](O)[C@@H]1O [BAICALIN],IC50,,> 20 µM
same,IC50,read-out: pIC50 (converted),> 20 µM
CC(C)C(=O)OC[C@@]1(N=[N+]=[N-])O[C@@H](n2ccc(N)nc2=O)[C@H](OC(=O)C(C)C)[C@@H]1OC(=O)C(C)C [BALAPIRAVIR],IC50,,> 20 µM
same,IC50,read-out: pIC50 (converted),> 20 µM
COC(=O)OCOc1c2n(ccc1=O)N([C@@H]1c3ccccc3SCc3c1ccc(F)c3F)[C@@H]1COCCN1C2=O [BALOXAVIR MARBOXIL],IC50,,> 20 µM
same,IC50,read-out: pIC50 (converted),> 20 µM
CN(C)C(=O)Oc1cc(OC(=O)N(C)C)cc(C(O)CNC(C)(C)C)c1 (configuration not stated) [BAMBUTEROL],IC50,,> 20 µM
same,IC50,read-out: pIC50 (converted),> 20 µM
CCN(CCO)CCn1c(Cc2ccccc2)nc2c1c(=O)n(C)c(=O)n2C [BAMIFYLLINE],IC50,,> 20 µM
same,IC50,read-out: pIC50 (converted),> 20 µM
Cc1ncc([N+](=O)[O-])n1CCOC(N)=O [BAMNIDAZOLE],IC50,,> 20 µM
same,IC50,read-out: pIC50 (converted),> 20 µM
